For data set [1] the following is noted: rats, oral CrCl3 with NSAID; cited from earlier work.
The conditions of data set [2]: oral biotin intakes of up to 200 mg daily; cited from earlier work.
In data set [3] the test system is JCR rat. Briefly: Intraperitoneal glucose tolerance test / glucose disposal in JCR rats. In kind it is in vivo. The following applies: for Glucose Disposal: individual rat, 12 weeks daily treatment via water. As to the method:
In order to test the effects of chromium and biotin, alone and in combination, on insulin sensitivity, a rodent model of “Syndrome X” was employed. Specifically, the JCR rat was utilized as it is a well-established model of obesity and insulin resistance.
After a baseline phase where accurate weights, body composition, and food intake were assessed, the animals were randomized to either control, CrPic alone, biotin alone, or CrPic/Biotin (See FIG. 5). Animals were weighed weekly and nutrients were given via daily water feeding at a specified dose/kg body weight. A 12-week period of daily treatment of animals was accomplished.
At specified time points during the study, glucose and insulin assessments were made. Specific assessments of carbohydrate metabolism were determined using an intraperitoneal glucose tolerance test and an insulin tolerance test. Animals were studied at 6 and 12 weeks with randomization. The specific metabolic testing was as follows:
Following baseline glucose and insulin measurements, 1.5 mg D50W per gram of body weight were given intraperitoneally. Tailsticks were initiated at 30, 60, 90, and 120 minutes following administration of glucose. The areas under curve for insulin and glucose were assessed. Eight animals in each group at 12 weeks were studied. Table 1 details the amount of glucose disposal for animals treated with CrPic and/or biotin at various dosages. Note, “L” represents the lean control; “O-contr” are the obese control rats; “LB” connotes low biotin treatments; “HB” represents high biotin treatments; “LC” and “HC” represent low and high doses of chromium, respectively. FIG. 6 is a graphic representation of the results of the IPGTT studies. […]

Data set [4] concerns human skeletal muscle culture (HSMC). Briefly: Glucose uptake in human skeletal muscle culture. The settings on record: FIG. 2. In kind it is cell-based.
Data set [5] concerns JCR rat. Briefly: Lipid levels in JCR rats (chromium picolinate + biotin animal study). The arrangement: Cholesterol / HDL-ch: unit not given here. In kind it is in vivo. The protocol:
In order to test the effects of chromium and biotin, alone and in combination, on insulin sensitivity, a rodent model of “Syndrome X” was employed. Specifically, the JCR rat was utilized as it is a well-established model of obesity and insulin resistance. […] After a baseline phase where accurate weights, body composition, and food intake were assessed, the animals were randomized to either control, CrPic alone, biotin alone, or CrPic/Biotin (See FIG. 5). Animals were weighed weekly and nutrients were given via daily water feeding at a specified dose/kg body weight. A 12-week period of daily treatment of animals was accomplished. […] Specifically, CrPic versus control solutions were given in hyperinsulinemic, insulin-resistant, obese JCR rats. The study was initiated on animals at approximately 4 months of age, and animals were treated specifically for three months. […] 9). […] The improvement in insulin sensitivity was associated with a reduction in total. cholesterol levels compared to lean animals (See, e.g., Table 2, and FIGS. 10 & 11). The effect of the combination of chromium and biotin on lipid levels in the animal study is detailed in Table 2. Specifically, the effect of chromium and biotin on cholesterol levels, high density lipid cholesterol (HDL-ch) levels, and triglyceride levels are recorded in Table 2.

The test system of data set [6] is streptozotocin-diabetic rats; Otsuka Long-Evans Tokushima Fatty rats. The following applies: high-dose oral or parenteral, cited from earlier work.
The test system of another data set is diabetic KK mice. The settings on record: high-dose oral or parenteral; cited from earlier work.
Data set [7] deals with Type I and type 2 diabetics. The following applies: cited from earlier work.
The test system of data set [8] is glycogen synthetase (GS) mRNA. Kind of data set: Glycogen synthetase (GS) mRNA expression in HSMC. The format is cell-based, human. The settings on record: CrPic 10 ng/ml, biotin 10 pm, FIG. 4B. The protocol:
To evaluate the cellular mechanism by […] biotin enhance glycogen synthesis, glycogen synthetase (“GS”) mRNA and glycogen synthesis were assessed. HSMC was incubated with CrPic at 10 ng/ml, biotin at 10 pm, and both CrPic and biotin. […] When evaluating GS mRNA levels, chromium increased gene expression of GS by 26%, biotin by 15%, and the combination by 33%. […] RNA Preparation: Total RNA from the skeletal muscle biopsy was isolated using guanium […], phenol-chloroform extraction, and alcohol precipitation. RNA sample was quantified by spectrophotometer. The absorption ratio (260:280 nm) was between 1.8 to 2.0 for all preparations and the integrity of the RNA was verified on agarose gel colored with ethidium bromide. For RT-PCR, fresh isolated total RNA was used. GS mRNA Level Analysis: GS mRNA levels were analyzed using one-step RT-PCR kits (Clontech Laboratories, Inc., Palo Alto, Calif.). GS first-strand CDNA synthesis was performed from 1 μh of total RNA with 1×[…] plus enzyme mix in 40 mM Tricine, 20 mM Kcl, 3 mM MgCl2, 3.75 ug/ml BSA, 0.2 mM deoxynucleoside triphosphates, 400 pmol of oligo(dt) primer, and 200 pm GS primers (Sense [NT], antisense [NT]) in a final volume of 50 μl. The reaction mixtures were subjected to incubations for 60 min. at 50° C. in the Eppendorf Master gradient cycler (Westbury, N.Y.). […] The band densities were evaluated (Alpha Imager 2000, San Leandro, Calif.). […]

Each structure is given as a SMILES string. Values joined by “and” are separate entries in the source; they are usually repeats but may differ in a detail not shown here. Identical values can stand only once. Like-named read-outs stand apart in the source and are kept apart here.

The source of these data is US20050214385A1, “Chromium/biotin treatment of dyslipidemia and diet-induced post prandial hyperglycemia” (priority 2001, published 2005).

As for `CC(=O)Oc1ccccc1C(=O)O` [aspirin], in data set [1], the Chromium absorption entry was “facilitated”.

As for `O=C(O)CCCC[C@@H]1SC[C@@H]2NC(=O)N[C@@H]21` [biotin], the “side effects or toxicities” value in data set [2] was “no side effects or toxicities”. Further, the “Glucose Disposal” value in the data set with JCR rat [3] (listed as HB) was 1.92 mg/dL/min and 2.329 mg/dL/min and 1.879 mg/dL/min and 1.772 mg/dL/min and 1.993 mg/dL/min; in the data set on JCR rat [3] (listed as LB), 2.21 mg/dL/min and 2.392 mg/dL/min and 1.876 mg/dL/min and 1.768 mg/dL/min and 1.875 mg/dL/min. In the data set with JCR rat [3] (mean per treatment, 12 weeks), the “Glucose Disposal, value per treatment group” value came to 2.0615 mg/dL/min. For the same compound, the glucose uptake result in [4] is given as “chromium alone enhances glucose uptake in contrast to biotin alone”. Moreover, the Cholesterol in the data set with JCR rat [5] (Month 0, listed as High Biotin) was 106; in the data set on JCR rat [5] (Month 0, listed as Low Biotin), 111; with JCR rat [5] (Month 1, listed as High Biotin), 111; with JCR rat [5] (Month 1, listed as Low Biotin), 117; in the data set with JCR rat [5] (Month 2, listed as High Biotin) it was 130; in the data set with JCR rat [5] (Month 2, listed as Low Biotin), 122. Further, the Cholesterol is 144 with JCR rat [5] (Month 3, listed as High Biotin) and 118 in the data set with JCR rat [5] (Month 3, listed as Low Biotin). Moreover, the HDL-ch in the data set with JCR rat [5] (Month 0, listed as High Biotin) worked out at 43.6; with JCR rat [5] (Month 0, listed as Low Biotin), 47.8; in the data set on JCR rat [5] (Month 1, listed as High Biotin), 42; in the data set with JCR rat [5] (Month 1, listed as Low Biotin), 46.5; in the data set with JCR rat [5] (Month 2, listed as High Biotin), 46.8; in the data set on JCR rat [5] (Month 2, listed as Low Biotin) it was 45.8. For the same compound, the HDL-ch with JCR rat [5] (Month 3, listed as High Biotin) is reported as 46.9; in the data set on JCR rat [5] (Month 3, listed as Low Biotin) it was 47.3. Moreover, the Triglyceride in the data set with JCR rat [5] (Month 0, listed as High Biotin) worked out at 289 mg/dL; with JCR rat [5] (Month 0, listed as Low Biotin) it was 317 mg/dL; in the data set on JCR rat [5] (Month 1, listed as High Biotin) it was 292 mg/dL; with JCR rat [5] (Month 1, listed as Low Biotin), 331 mg/dL; in the data set on JCR rat [5] (Month 2, listed as High Biotin), 294 mg/dL; with JCR rat [5] (Month 2, listed as Low Biotin), 272 mg/dL. In addition, the Triglyceride was 301 mg/dL with JCR rat [5] (Month 3, listed as High Biotin) and 229 mg/dL with JCR rat [5] (Month 3, listed as Low Biotin). The oral glucose tolerance entry (in data set [6] (pre-diabetic Otsuka Long-Evans Tokushima Fatty rats); in data set [6] (rats made diabetic with streptozotocin); in the data set on diabetic KK mice) was “improve oral glucose tolerance” in each case. Further, the “fasting plasma glucose levels” value in data set [7] (Type I diabetics, insulin temporarily discontinued, 16 mg daily oral) was “lowered fasting plasma glucose levels”. Moreover, the “pancreatic beta cell function” value in [7] (poorly-controlled type 2 diabetics, 3 mg three times per day) is listed as “improved”. Further, the “increase of gene expression of GS (GS mRNA levels)” value in [8] was 15%.
